Data from US11578055B2, “Triazacyclododecansulfonamide (“TCD”)-based protein secretion inhibitors” (KEZAR LIFE SCIENCES, priority 2018, dated 2023).
pEC50, pIC50: −log10 of the molar value. Structures can show the parent of a compound that is named as a salt.

What was measured:
[1] = In Vitro Microsome Stability Assay (rat); assay type: in vitro ADME; conditions: rat, 30 min, NADPH
Outline: (§1)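 Species liver microsomes in potassium phosphate buffer were preincubated at 37 °C for 3–5 min with test compound (added from 0.25 mM DMSO stock), then started with NADPH. Samples at 0 and 30 min were quenched with acetonitrile containing internal standard and analysed by LC-MS/MS; % remaining at 30 min used analyte/IS AUC ratios relative to t=0.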

[2] = In Vitro Microsome Stability Assay (human); assay type: in vitro ADME; conditions: human, 30 min, NADPH
Outline: as §1

[3] = tested on: multiple myeloma cell line NCl-H929; assay: H929 Cell Viability Assay; assay type: cell-based, human; conditions: Homo sapiens, NCI-H929, 48 h, H929, read-out: 48 hr H929 Viability Celltiter-Glo: Mean EC50
Outline: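 NCI-H929 myeloma cells in RPMI 1640 with 10% FBS were treated with compound dilutions for 48 h at 37 °C, and viability was then read by CellTiter-Glo luminescence. Compounds drawn without stereochemistry were tested as stereoisomer mixtures.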

[4] = tested on: full length TNFα (amino acids 1-233) fused to Gaussia Luciferase; assay: Dox Induced TNFα-FL-Gluc Assay; assay type: cell-based; conditions: 24 hr, 293FRT/TO; read-out: 24 hr Dox Inducible TNFaFLGluc 293FRT/TO: Mean IC50
Outline: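 Stable Flp-In 293 T-REx line expressing doxycycline-inducible full-length TNFα fused to Gaussia luciferase; cells plated the day before, then treated with compound dilutions in doxycycline-containing medium at 37° C, 5% CO2. Unspecified stereocentres mean stereoisomer mixtures were tested.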

[5] = tested on: multiple myeloma cell line U266B1; assay: U266 Cell Viability Assay; assay type: cell-based, human; conditions: Homo sapiens, U-266; 48 hr, U266; read-out: 48 hr U266 Viability Celltiter-Glo: Mean EC50
Outline: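 U266B1 myeloma cells in RPMI 1640 with 10% FBS were treated with compound dilutions for 48 h at 37° C, 5% CO2. Viability was read as CellTiter-Glo luminescence. Data for structures drawn without stereochemistry refer to stereoisomer mixtures.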

[6] = In Vitro Microsome Stability Assay (mouse); assay type: in vitro ADME; conditions: mouse, 30 min, NADPH
Outline: as §1

[7] = In Vitro Microsome Stability Assay (monkey); assay type: in vitro ADME; conditions: monkey, 30 min, NADPH
Outline: as §1

[8] = tested on: PD1 signal sequence plus 10 amino acids fused to Gaussia Luciferase (PD1-ss+10aa/Gaussia Luciferase); assay: Dox Induced PD1-ss-Gluc Assay; assay type: cell-based; conditions: 24 hr, 293FRT/TO; read-out: 24 hr Dox Inducible PD1ssGluc 293FRT/TO: Mean IC50
Outline: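 Stable Flp-In 293 T-REx line expressing the fusion under tetracycline-inducible control, plated the day before assay. Compound dilutions added with doxycycline and incubated at 37 °C, 5% CO2; unspecified stereocentres mean data refer to stereoisomer mixtures.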

C=C1CN(S(=O)(=O)c2ccc(N(C)C)cc2)CCCN(CC2CCCCC2)CCCN(S(=O)(=O)N2CCC(C#N)CC2)C1 [A39, 1-{[9-(cyclohexylmethyl)-5-[4-(dimethylamino)benzenesulfonyl]-3-methylidene-1,5,9-triazacyclododecan-1-yl]sulfonyl}piperidine-4-carbonitrile]
Liver Microsome Stability-% Left after 30 min w/ NADPH (%) Rat [1]: 6% | Liver Microsome Stability-% Left after 30 min w/ NADPH (%) Human [2]: 0.05% | pEC50 [3]: < 4.60 | pIC50 [4]: < 4.60 | pEC50 [5]: 4.98 | Liver Microsome Stability-% Left after 30 min w/ NADPH (%) Mouse [6]: 0.26% | Liver Microsome Stability-% Left after 30 min w/ NADPH (%) Monkey [7]: 0.11% | pIC50 [8]: 6.12

CN(C)c1ccc(S(=O)(=O)N2CCCN(CC3CCCCC3)CCCN(S(=O)(=O)N3CCCCC3)CC3(CC3)C2)c(F)c1 [A40]
Liver Microsome Stability-% Left after 30 min w/ NADPH (%) Rat [1]: 0.12% | Liver Microsome Stability-% Left after 30 min w/ NADPH (%) Human [2]: 0.04% | pEC50 [3]: < 4.60 | pIC50 [4]: < 4.82 | pEC50 [5]: < 4.60 | Liver Microsome Stability-% Left after 30 min w/ NADPH (%) Mouse [6]: 0.19% | Liver Microsome Stability-% Left after 30 min w/ NADPH (%) Monkey [7]: 0.04% | pIC50 [8]: 6.51

O=S(=O)(C1CCCCC1)N1CCCN(CC2CCCCC2)CCCN(S(=O)(=O)N2CCCCC2)CC2(CC2)C1 [A41]
Liver Microsome Stability-% Left after 30 min w/ NADPH (%) Rat [1]: 0.14% | Liver Microsome Stability-% Left after 30 min w/ NADPH (%) Human [2]: 0.08% | pEC50 [3]: < 4.60 | pIC50 [4]: < 4.60 | pEC50 [5]: < 4.60 | Liver Microsome Stability-% Left after 30 min w/ NADPH (%) Mouse [6]: 0.2% | Liver Microsome Stability-% Left after 30 min w/ NADPH (%) Monkey [7]: 0.1% | pIC50 [8]: 4.76

CN(C)c1ccc(S(=O)(=O)N2CCCN(CC3CCCCC3)CCCN(S(=O)(=O)N3CCC(c4ccccc4)CC3)CCC2)cc1 [A42, 4-{[5-(cyclohexylmethyl)-9-[(4-phenylpiperidin-1-yl)sulfonyl]-1,5,9-triazacyclododecan-1-yl]sulfonyl}-N,N-dimethylaniline]
Liver Microsome Stability-% Left after 30 min w/ NADPH (%) Rat [1]: 7.69% | Liver Microsome Stability-% Left after 30 min w/ NADPH (%) Human [2]: 2.65% | pEC50 [3]: < 4.60 | pIC50 [4]: < 4.60 | pEC50 [5]: < 4.60 | Liver Microsome Stability-% Left after 30 min w/ NADPH (%) Mouse [6]: 0.79% | Liver Microsome Stability-% Left after 30 min w/ NADPH (%) Monkey [7]: 0.81% | pIC50 [8]: 6.16

CC1CN(S(=O)(=O)c2ccc(N(C)C)cc2)CCCN(CC2CCCCC2)CCCN(S(=O)(=O)N2CCC(c3ccccc3)CC2)C1 (centres unmarked) [A44, 4-{[9-(cyclohexylmethyl)-3-methyl-5-[(4-phenylpiperidin-1-yl)sulfonyl]-1,5,9-triazacyclododecan-1-yl]sulfonyl}-N,N-dimethylaniline hydrochloride]
Liver Microsome Stability-% Left after 30 min w/ NADPH (%) Rat [1]: 54% | Liver Microsome Stability-% Left after 30 min w/ NADPH (%) Human [2]: 47.6% | pEC50 [3]: < 4.60 | pIC50 [4]: 4.90 | pEC50 [5]: < 4.60 | Liver Microsome Stability-% Left after 30 min w/ NADPH (%) Mouse [6]: 43.8% | Liver Microsome Stability-% Left after 30 min w/ NADPH (%) Monkey [7]: 38% | pIC50 [8]: 6.88

C=C1CN(S(=O)(=O)c2ccc(N(C)C)cc2)CCCN(CC2CCCCC2)CCCN(S(=O)(=O)N2CCN(c3ccccc3)[C@H](C)C2)C1 [A46, 4-{[9-(cyclohexylmethyl)-5-{[(3 R)-3-methyl-4-phenylpiperazin-1-yl]sulfonyl}-3-methylidene-1,5,9-triazacyclododecan-1-yl]sulfonyl}-N,N-dimethylaniline]
Liver Microsome Stability-% Left after 30 min w/ NADPH (%) Rat [1]: 4.46% | Liver Microsome Stability-% Left after 30 min w/ NADPH (%) Human [2]: 6.12% | pEC50 [3]: 5.48 | pIC50 [4]: 5.75 | pEC50 [5]: < 4.60 | Liver Microsome Stability-% Left after 30 min w/ NADPH (%) Mouse [6]: 3.63% | Liver Microsome Stability-% Left after 30 min w/ NADPH (%) Monkey [7]: 1.44% | pIC50 [8]: 7.30

C=C1CN(S(=O)(=O)c2ccc(N(C)C)cc2)CCCN(CC2CCCCC2)CCCN(S(=O)(=O)N2CCN(c3ccccc3)[C@@H](C)C2)C1 [A47, 4-{[9-(cyclohexylmethyl)-5-{[(3S)-3-methyl-4-phenylpiperazin-1-yl]sulfonyl}-3-methylidene-1,5,9-triazacyclododecan-1-yl]sulfonyl}-N,N-dimethylaniline]
Liver Microsome Stability-% Left after 30 min w/ NADPH (%) Rat [1]: 10.7% | Liver Microsome Stability-% Left after 30 min w/ NADPH (%) Human [2]: 12.6% | pEC50 [3]: < 4.60 | pIC50 [4]: < 4.60 | pEC50 [5]: < 4.60 | Liver Microsome Stability-% Left after 30 min w/ NADPH (%) Mouse [6]: 5.68% | Liver Microsome Stability-% Left after 30 min w/ NADPH (%) Monkey [7]: 1.68% | pIC50 [8]: 6.59

C=C1CN(S(=O)(=O)c2ccc(N(C)C)cc2)CCCN(CC2CCCCC2)CCCN(S(=O)(=O)N2CCN(c3ccccc3)C(=O)C2)C1 [A48, 4-{[9-(cyclohexylmethyl)-5-[4-(dimethylamino)benzenesulfonyl]-3-methylidene-1,5,9-triazacyclododecan-1-yl]sulfonyl}-1-phenylpiperazin-2-one]
Liver Microsome Stability-% Left after 30 min w/ NADPH (%) Rat [1]: 0.4% | Liver Microsome Stability-% Left after 30 min w/ NADPH (%) Human [2]: 0.19% | pEC50 [3]: < 4.60 | pIC50 [4]: < 4.60 | pEC50 [5]: < 4.60 | Liver Microsome Stability-% Left after 30 min w/ NADPH (%) Mouse [6]: 0.07% | Liver Microsome Stability-% Left after 30 min w/ NADPH (%) Monkey [7]: 0.1% | pIC50 [8]: 6.00

C=C1CN(S(=O)(=O)c2ccc(N(C)C)cc2)CCCN(CC2CCCCC2)CCCN(S(=O)(=O)N2CCC[C@H](c3ccccc3)C2)C1 [A49, 4-{[9-(cyclohexylmethyl)-3-methylidene-5-{[(3 R)-3-phenylpiperidin-1-yl]sulfonyl}-1,5,9-triazacyclododecan-1-yl]sulfonyl}-N,N-dimethylaniline]
Liver Microsome Stability-% Left after 30 min w/ NADPH (%) Rat [1]: 16.4% | Liver Microsome Stability-% Left after 30 min w/ NADPH (%) Human [2]: 3.5% | pEC50 [3]: < 4.60 | pIC50 [4]: < 4.60 | pEC50 [5]: < 4.60 | Liver Microsome Stability-% Left after 30 min w/ NADPH (%) Mouse [6]: 11.8% | Liver Microsome Stability-% Left after 30 min w/ NADPH (%) Monkey [7]: 9.36% | pIC50 [8]: 6.39

C=C1CN(S(=O)(=O)c2ccc(N(C)C)cc2)CCCN(CC2CCCCC2)CCCN(S(=O)(=O)N2CCc3cccc(Cl)c3C2)C1 [A51, 4-({5-[(8-chloro-1,2,3,4-tetrahydroisoquinolin-2-yl)sulfonyl]-9-(cyclohexylmethyl)-3-methylidene-1,5,9-triazacyclododecan-1-yl}sulfonyl)-N,N-dimethylaniline]
Liver Microsome Stability-% Left after 30 min w/ NADPH (%) Rat [1]: 34.7% | Liver Microsome Stability-% Left after 30 min w/ NADPH (%) Human [2]: 26.7% | pEC50 [3]: 5.21 | pIC50 [4]: 5.51 | pEC50 [5]: < 4.60 | Liver Microsome Stability-% Left after 30 min w/ NADPH (%) Mouse [6]: 28% | Liver Microsome Stability-% Left after 30 min w/ NADPH (%) Monkey [7]: 23.6% | pIC50 [8]: 7.21

C=C1CN(S(=O)(=O)c2ccc(N(C)C)cc2)CCCN(CC2CCCCC2)CCCN(S(=O)(=O)N2CCc3ccc(Cl)cc3C2)C1 [A52, 4-({5-[(7-chloro-1,2,3,4-tetrahydroisoquinolin-2-yl)sulfonyl]-9-(cyclohexylmethyl)-3-methylidene-1,5,9-triazacyclododecan-1-yl}sulfonyl)-N,N-dimethylaniline]
Liver Microsome Stability-% Left after 30 min w/ NADPH (%) Rat [1]: 40.1% | Liver Microsome Stability-% Left after 30 min w/ NADPH (%) Human [2]: 31% | pEC50 [3]: 5.68 | pIC50 [4]: 5.98 | pEC50 [5]: < 4.60 | Liver Microsome Stability-% Left after 30 min w/ NADPH (%) Mouse [6]: 29.3% | Liver Microsome Stability-% Left after 30 min w/ NADPH (%) Monkey [7]: 38.3% | pIC50 [8]: 7.34

C=C1CN(S(=O)(=O)c2ccc(N(C)C)cc2)CCCN(CC2CCCCC2)CCCN(S(=O)(=O)N2CCc3cc(Cl)ccc3C2)C1 [A53, 4-({5-[(6-chloro-1,2,3,4-tetrahydroisoquinolin-2-yl)sulfonyl]-9-(cyclohexylmethyl)-3-methylidene-1,5,9-triazacyclododecan-1-yl}sulfonyl)-N,N-dimethylaniline]
Liver Microsome Stability-% Left after 30 min w/ NADPH (%) Rat [1]: 50.5% | Liver Microsome Stability-% Left after 30 min w/ NADPH (%) Human [2]: 38% | pEC50 [3]: 5.77 | pIC50 [4]: 5.99 | pEC50 [5]: < 4.99 | Liver Microsome Stability-% Left after 30 min w/ NADPH (%) Mouse [6]: 39.2% | Liver Microsome Stability-% Left after 30 min w/ NADPH (%) Monkey [7]: 39% | pIC50 [8]: 7.45

C=C1CN(S(=O)(=O)c2ccc(N(C)C)cc2)CCCN(CC2CCCCC2)CCCN(S(=O)(=O)N2CCc3c(Cl)cccc3C2)C1 [A54, 4-({5-[(5-chloro-1,2,3,4-tetrahydroisoquinolin-2-yl)sulfonyl]-9-(cyclohexylmethyl)-3-methylidene-1,5,9-triazacyclododecan-1-yl}sulfonyl)-N,N-dimethylaniline]
Liver Microsome Stability-% Left after 30 min w/ NADPH (%) Rat [1]: 42.4% | Liver Microsome Stability-% Left after 30 min w/ NADPH (%) Human [2]: 33.8% | pEC50 [3]: 5.72 | pIC50 [4]: 6.02 | pEC50 [5]: < 4.60 | Liver Microsome Stability-% Left after 30 min w/ NADPH (%) Mouse [6]: 34.6% | Liver Microsome Stability-% Left after 30 min w/ NADPH (%) Monkey [7]: 30.5% | pIC50 [8]: 7.58
